Results as given in patent US5541290A, “Optically pure calpain inhibitor compounds” (priority 1993, dated 1996).
Where a name gives a salt, the structure may show the parent alone.

What follows are molecules tested against T1, Calpain I (porcine erythrocytes) (Sus scrofa, UniProt P35750) (assay: Calpain assay, continuous spectrofluorometric assay with SLY-MCA). Settings: SLY-MCA substrate, 25° C., pH 7.5, competitive inhibition fit, read-out: Ki, pCal I.
T1 construct: Calpain I (porcine erythrocytes, Nacalai Tesque, Kyoto, Japan); purchased Nacalai Tesque, Kyoto, Japan; host or cells: porcine erythrocytes (natural tissue source)
T1 sequence (P35750 1-714): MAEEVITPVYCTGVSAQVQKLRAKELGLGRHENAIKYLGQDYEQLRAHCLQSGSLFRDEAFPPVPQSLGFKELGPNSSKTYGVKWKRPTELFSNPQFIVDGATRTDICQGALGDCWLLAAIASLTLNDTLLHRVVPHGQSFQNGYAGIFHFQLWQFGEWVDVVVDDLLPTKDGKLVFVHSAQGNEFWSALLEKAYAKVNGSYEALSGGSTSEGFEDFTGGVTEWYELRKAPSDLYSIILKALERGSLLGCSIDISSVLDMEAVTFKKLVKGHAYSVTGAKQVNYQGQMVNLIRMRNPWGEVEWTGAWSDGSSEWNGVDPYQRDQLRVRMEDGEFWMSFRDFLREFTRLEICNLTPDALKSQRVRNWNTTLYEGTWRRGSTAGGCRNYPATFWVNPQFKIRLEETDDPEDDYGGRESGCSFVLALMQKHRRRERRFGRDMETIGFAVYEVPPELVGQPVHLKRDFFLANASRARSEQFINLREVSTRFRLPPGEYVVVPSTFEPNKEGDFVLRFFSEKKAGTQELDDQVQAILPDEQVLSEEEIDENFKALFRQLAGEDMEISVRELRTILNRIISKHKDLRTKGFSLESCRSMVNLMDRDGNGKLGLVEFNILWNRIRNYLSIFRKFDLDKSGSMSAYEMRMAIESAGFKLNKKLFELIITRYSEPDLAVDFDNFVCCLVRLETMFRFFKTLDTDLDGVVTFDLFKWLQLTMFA
T1 sequence (P04574 1-266 partner): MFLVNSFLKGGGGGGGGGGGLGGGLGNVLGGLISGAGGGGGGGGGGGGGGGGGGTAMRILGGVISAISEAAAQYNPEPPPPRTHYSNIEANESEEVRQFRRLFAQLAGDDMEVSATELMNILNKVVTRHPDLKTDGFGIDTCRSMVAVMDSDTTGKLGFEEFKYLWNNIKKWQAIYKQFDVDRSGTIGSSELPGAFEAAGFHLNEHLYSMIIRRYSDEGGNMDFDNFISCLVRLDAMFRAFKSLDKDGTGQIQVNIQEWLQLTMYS
Type: biochemical
Protocol: Calpain activity was monitored using a continuous spectrofluorometric assay with succinyl-Leucyl-Tyrosyl-4-methylcoumaryl-γ-amide (SLY-MCA); Sasaki, T.; Kikuchi, T.; Yumotogo, N.; Yoshimura, N. and Murachi, T. J. Biol. Chem. 1984, 259. 12489-12494) at 25° C. using a Hitachi F4500 fluorescence spectrophotometer with a temperature controlled cuvette holder. The substrate solution was composed of SLY-MCA (2-0.2 mM) in 50 mM MOPS, pH 7.5, 5 mM CaCl2, 5 mM β-mercaptoethanol and 1% DMSO. Solutions of the inhibitors (100-500 nM) were prepared in the same buffer mixture as substrate. Calpain I (porcine erythrocytes, Nacalai Tesque, Kyoto, Japan) was diluted to 180 ug/mL in 20 mM HEPES, pH 7.5, 2 mM EDTA, 2 mM EGTA and 5 mM DTT. The substrate solution (0.9 mL) was placed in a 1 cm cuvette and to this was added either the inhibitor solution (0.05 mL) or the buffer (0.05 mL) as a control. The reaction was initiated by addition of the calpain I solution (0.05 mL) and the increase in fluorescence (excitation at 380 nm; emission at 460 nm) was monitored for 3 to 10 min. The initial velocities were then used to obtain the values of Vmax, Km and Ki by an iterative least squares fit of the data to the following equation for competitive inhibition according to the method of W. W. Cleland, Biochim. Biophys. Acta 67: 173 (1963).
V={Vmax ·[SLY-MCA]}/{(1+Inh]/Kl)·Km+[SLY-MCA]}

Row | Molecule | Ki
1 | CCNC(=O)C(=O)C(CC)NC(=O)C(CC(C)C)NC(=O)OC(C)(C)C [Boc-L-Leu-L-Abu-CONH-Et] | 170 ± 15 nM
2 | CCC(NC(=O)C(CC(C)C)NC(=O)OCc1ccccc1)C(=O)C(=O)NCCS(=O)(=O)CC [Cbz-L-Leu-L-Abu-C(O)-NH-(CH2)2 -SO2 -ET, Cbz-L-Leu-L-Abu-C(O)--NH--(CH2)2 --SO2 --Et] | 129 ± 15 nM
3 | CC(C)C[C@H](NC(=O)OCc1ccccc1)C(=O)N[C@@H](Cc1ccccc1)C(=O)C(=O)N[C@@H](C)C(=O)O [Cbz-L-Leu-L-Phe-C(O)-L-Ala-OH] | 718 ± 84 nM
4 | COC(=O)C(C)NC(=O)C(=O)C(Cc1ccccc1)NC(=O)C(CC(C)C)NC(=O)OCc1ccccc1 [Cbz-L-Leu-L-Phe-C(O)-L-Ala-OMe] | 92 ± 6 nM
5 | CCC(NC(=O)C(=O)C(Cc1ccccc1)NC(=O)C(CC(C)C)NC(=O)OCc1ccccc1)C(=O)OC [Cbz-L-Leu-L-Phe-C(O)-L-α-Abu-OMe] | 141 ± 22 nM
6 | COC(=O)[C@H](Cc1ccc(OC(C)(C)C)cc1)NC(=O)C(=O)C(Cc1ccccc1)NC(=O)[C@H](CC(C)C)NC(=O)OCc1ccccc1 (stereo partly drawn) [Cbz-L-Leu-L-Phe-C(O)-Tyr(O-t-butyl)-OMe] | 273 ± 17 nM
7 | CCCC(NC(=O)C(CC(C)C)NC(=O)C(N)Cc1ccccc1)C(=O)C(=O)NCC [D-Phe-L-Leu-L-Norvaline-CONH-Et.HCl, D-Phe-L-Leu-L-Norvaline-CONH-Et·HCl] | 244 ± 11 nM
8 | CCNC(=O)C(=O)C(CC)NC(=O)C(CC(C)C)NC(=O)N(C)C [Dimethylurea-L-Leu-L-Abu-CONH-Et] | 332 ± 29 nM
9 | CCCC(NC(=O)C(CC(C)C)NC(=O)C(N)Cc1ccccc1)C(=O)C(=O)NCC [L-Phe-L-Leu-L-Norvaline-CONH-Et.HCl, L-Phe-L-Leu-L-Norvaline-CONH-Et·HCl] | 116 ± 5 nM
10 | CCNC(=O)C(=O)C(CC)NC(=O)C(CC(C)C)NC(=O)N1CCOCC1 [Morpholinourea-L-Leu-L-Abu-CONH-Et] | 199 ± 16 nM
11 | Boc-D-Phe-L-Leu-L-Norvaline-CONH-Et | 93 ± 4 nM
12 | Boc-L-Phe-L-Leu-L-Norvaline-CONH-Et | 61 ± 2 nM
13 | Cbz-L-Leu-L-Abu-CONH-Et | 77 ± 10 nM
14 | Cbz-L-Leu-L-Norvaline-CONH-Et | 78 nM
15 | Cbz-L-Leu-L-Phe-C(O)-L-Norleucine-OMe | 76.6 ± 5.2 nM
16 | Cbz-L-Leu-L-Phe-C(O)-Phe-OMe | 31 ± 12 nM
17 | Cbz-L-Leu-L-Phenylalanine-CONH-Et | 89 nM

What follows are molecules tested against T1, Calpain I (porcine erythrocytes) in the same assay as above. Settings: not given.
Type: biochemical

Row | Molecule | IC50
18 | CCNC(=O)C(=O)C(Cc1ccccc1)NC(=O)C(CC(C)C)NC(=O)OCc1ccccc1 [Cbz-L-Leu-D-Phe-CONH-Et] | > 1500 nM
